# Patent US20110196000A1, “Use of succinate dehydrogenase (SDH) inhibitors in the treatment of plant species from the family of the true grasses” (Bayer CropScience AG, priority 2010, published 2011)
# How the values were obtained:
# Type in all cases: in vivo
# wheat variety Ritmo [1] = assay: Plot trial in Germany: green leaf area by visual scoring; details: sprays at BBCH 39 and 59
# Method in brief: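 Field plot trial in Germany, wheat variety Ritmo, bixafen products sprayed sequentially at BBCH 39 and 59 at 400 l water/ha, 5 repetitions. Green leaf area duration followed by regular visual scoring of green leaf fraction.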
# wheat variety Ritmo [2] = assay: Plot trial: yield components; details: sprays at BBCH 39 and 59
# [3] = test system: infection-free wheat plants of the cultivar Passat; assay: Glasshouse trial: green leaf area by visual scoring; details: glasshouse
# Method in brief: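 Infection-free wheat grown 4 months under controlled glasshouse conditions in 10-litre containers, 10 repetitions per trial component. Products applied as sequential sprays at BBCH 39 and 59 in 300 l water/ha. Duration of green leaf area scored visually at regular intervals.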
# [4] = test system: infection-free wheat plants of the cultivar Passat; assay: Glasshouse trial: size of the flag leaf; details: at BBCH 83-85
# Method in brief: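 Infection-free wheat grown 4 months in 10-litre containers in a glasshouse, 10 repetitions, pests and mildew controlled. Test products sprayed sequentially at BBCH 39 and 59 in 300 l water/ha; flag leaf length and width measured.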
# [5] = test system: infection-free wheat plants of the cultivar Passat; assay: Glasshouse trial: time of heading (ear emergence); design: time of heading of wheat (ears emerged): unit not given here
# Method in brief: (§1)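 Wheat grown in 10-litre containers for 4 months under controlled glasshouse conditions, in earth/C-horizon/sand (4:2:1) substrate, fed 0.2% liquid fertilizer every two weeks and watered as needed. Bixafen effects were assessed with 10 repetitions per trial component.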
# [6] = test system: infection-free wheat plants of the cultivar Passat; assay: Glasshouse trial: temperature of ears and leaves as measure of transpiration activity
# Method in brief: as §1
# [7] = test system: infection-free wheat plants of the cultivar Passat; assay: Glasshouse trial: gas exchange activity of wheat ears; details: development stage BBCH 75
# Method in brief: as §1
# wheat = assay: Effect on the number of kernels/ear; details: 2nd trial; applied at BBCH 39 (prothioconazole 200 g a.i.; bixafen + prothioconazole 75 + 150 g a.i./ha)
# [8] = 7 days after second fungicide application
# [9] = 14 days after second fungicide application
# [10] = 21 days after second fungicide application
# [11] = 28 days after second fungicide application
# [12] = 35 days after second fungicide application
# [13] = 42 days after second fungicide application
# [14] = 68 days after second fungicide application (so in the source)
# [15] = 75 days after second fungicide application (so in the source)
# [16] = 82 days after second fungicide application (so in the source)
# [17] = 89 days after second fungicide application (so in the source)
# [18] = 96 days after second fungicide application (so in the source)
# [19] = 103 days after second fungicide application (so in the source)
# [20] = 110 days after second fungicide application (so in the source)
# [21] = 117 days after second fungicide application (so in the source)
smiles,measurement,setting,value
OC(Cc1ccccc1Cl)(Cn1nc[nH]c1=S)C1(Cl)CC1 (stereo not drawn) [Prothioconazole],green leaf area of the flag leaf,wheat variety Ritmo [1]; [8],98.8 % leaf area
same,green leaf area of the second-from-top leaf (F-1),wheat variety Ritmo [1]; [8],97.8 % leaf area
same,green leaf area of the third-from-top leaf (F-2),wheat variety Ritmo [1]; [8],96.1 % leaf area
same,green leaf area of the flag leaf,wheat variety Ritmo [1]; [9],98.2 % leaf area
same,green leaf area of the second-from-top leaf (F-1),wheat variety Ritmo [1]; [9],97.8 % leaf area
same,green leaf area of the third-from-top leaf (F-2),wheat variety Ritmo [1]; [9],95.9 % leaf area
same,green leaf area of the flag leaf,wheat variety Ritmo [1]; [10],98.1 % leaf area
same,green leaf area of the second-from-top leaf (F-1),wheat variety Ritmo [1]; [10],96.8 % leaf area
same,green leaf area of the third-from-top leaf (F-2),wheat variety Ritmo [1]; [10],94.9 % leaf area
same,green leaf area of the flag leaf,wheat variety Ritmo [1]; [11],94.0 % leaf area
same,green leaf area of the second-from-top leaf (F-1),wheat variety Ritmo [1]; [11],91.2 % leaf area
same,green leaf area of the third-from-top leaf (F-2),wheat variety Ritmo [1]; [11],83.7 % leaf area
same,green leaf area of the flag leaf,wheat variety Ritmo [1]; [12],58.8 % leaf area
same,green leaf area of the second-from-top leaf (F-1),wheat variety Ritmo [1]; [12],44.3 % leaf area
same,green leaf area of the third-from-top leaf (F-2),wheat variety Ritmo [1]; [12],25.3 % leaf area
same,green leaf area of the flag leaf,wheat variety Ritmo [1]; [13],13.8 % leaf area
same,green leaf area of the second-from-top leaf (F-1),wheat variety Ritmo [1]; [13],4.2 % leaf area
same,green leaf area of the third-from-top leaf (F-2),wheat variety Ritmo [1]; [13],0 % leaf area
same,green leaf area of the second-from-top leaf (F-1),wheat variety Ritmo [1]; 49 days after second fungicide application,0 % leaf area
same,Ears/m^2,wheat variety Ritmo [2],397
same,Harvest Index,wheat variety Ritmo [2],59.3
same,Straw,wheat variety Ritmo [2],533 g m^−2
same,TKM (thousand-kernel mass),wheat variety Ritmo [2],46.3 g
same,Yield,wheat variety Ritmo [2],8.1 t ha^−1
same,green leaf area of the flag leaf (F),[3]; [14],100 % leaf area
same,green leaf area of the second-from-top leaf (F-1),[3]; [14],100 % leaf area
same,green leaf area of the third-from-top leaf (F-2),[3]; [14],100 % leaf area
same,green leaf area of the flag leaf (F),[3]; [15],100 % leaf area
same,green leaf area of the second-from-top leaf (F-1),[3]; [15],100 % leaf area
same,green leaf area of the third-from-top leaf (F-2),[3]; [15],95 % leaf area
same,green leaf area of the flag leaf (F),[3]; [16],100 % leaf area
same,green leaf area of the second-from-top leaf (F-1),[3]; [16],95 % leaf area
same,green leaf area of the third-from-top leaf (F-2),[3]; [16],83 % leaf area
same,green leaf area of the flag leaf (F),[3]; [17],95 % leaf area
same,green leaf area of the second-from-top leaf (F-1),[3]; [17],83 % leaf area
same,green leaf area of the third-from-top leaf (F-2),[3]; [17],53 % leaf area
same,green leaf area of the flag leaf (F),[3]; [18],85 % leaf area
same,green leaf area of the second-from-top leaf (F-1),[3]; [18],57 % leaf area
same,green leaf area of the third-from-top leaf (F-2),[3]; [18],30 % leaf area
same,green leaf area of the flag leaf (F),[3]; [19],62 % leaf area
same,green leaf area of the second-from-top leaf (F-1),[3]; [19],30 % leaf area
same,green leaf area of the third-from-top leaf (F-2),[3]; [19],17 % leaf area
same,green leaf area of the flag leaf (F),[3]; [20],38 % leaf area
same,green leaf area of the second-from-top leaf (F-1),[3]; [20],19 % leaf area
same,green leaf area of the third-from-top leaf (F-2),[3]; [20],8 % leaf area
same,green leaf area of the flag leaf (F),[3]; [21],15 % leaf area
same,green leaf area of the second-from-top leaf (F-1),[3]; [21],5 % leaf area
same,green leaf area of the third-from-top leaf (F-2),[3]; [21],0 % leaf area
same,Length of the flag leaf,[4],26.7 cm
same,Width of the flag leaf,[4],1.3 cm
same,Area of the flag leaf,[4]; calculated using the formula A = 0.67 × length × width,23.26 cm^2
same,Area [rel.] of the flag leaf,[4]; untreated = 100,106 rel.
same,time of heading of wheat (ears emerged),[5]; 45 days after sowing,6.9
same,time of heading of wheat (ears emerged),[5]; 50 days after sowing,29.0
same,time of heading of wheat (ears emerged),[5]; 55 days after sowing,42.6
same,time of heading of wheat (ears emerged),[5]; 60 days after sowing,48.2
same,time of heading of wheat (ears emerged),[5]; 65 days after sowing,64.1
same,time of heading of wheat (ears emerged),[5]; 70 days after sowing,77.9
same,time of heading of wheat (ears emerged),[5]; 75 days after sowing,87.1
same,time of heading of wheat (ears emerged),[5]; 80 days after sowing,94.9
same,time of heading of wheat (ears emerged),[5]; 85 days after sowing,100
same,Temperature (as a measure of the transpiration activity),"[6]; BBCH 75, ear",23.1 °C
same,Temperature (as a measure of the transpiration activity),"[6]; BBCH 75, leaf",22.4 °C
same,Temperature (as a measure of the transpiration activity),"[6]; BBCH 80, ear",19.5 °C
same,Temperature (as a measure of the transpiration activity),"[6]; BBCH 80, leaf",16.6 °C
same,Temperature (as a measure of the transpiration activity),"[6]; BBCH 85, ear",24.8 °C
same,Temperature (as a measure of the transpiration activity),"[6]; BBCH 85, leaf",23.7 °C
same,Temperature (as a measure of the transpiration activity),"[6]; BBCH 90, ear",24.2 °C
same,Temperature (as a measure of the transpiration activity),"[6]; BBCH 90, lear (so in the source)",23.1 °C
same,Photosynthesis (gas exchange activity of wheat ears),[7],−1.86 a CO2 per ear
same,Respiration (gas exchange activity of wheat ears),[7],2.12 ab CO2 per ear
same,Kernels/ear,wheat,30.1
